Source: US6583147B1, “Pyrazolopyrimidinone derivatives for the treatment of impotence” (Dong A Pharm Co., Ltd., priority 1998, dated 2003)

Key:
rats = experiment: Penile erection test using rats; assay type: in vivo, rat; conditions: oral single dose 10 mg/kg in 0.5% methyl cellulose, observed for 2 hours
[1] = biological target: T1, Phosphodiesterase-5 enzyme (PDE 5) (Homo sapiens, UniProt O76074); experiment: Test for phosphodiesterase-5 (PDE 5) activity; assay type: biochemical; conditions: PDE 5 fraction from human corpus cavernosal tissues
T1 construct: separated by HPLC (Mono Q anion exchange column) with concentration gradient of 0-500 mM NaCl to elute PDE isozymes; from tissue; host or cells: human corpus cavernosal tissue

[2] = biological target: T2, Phosphodiesterase-3 enzyme (PDE 3) (Oryctolagus cuniculus, UniProt G1ST54); experiment: Test for phosphodiesterase-3 (PDE 3) activity; assay type: biochemical; conditions: PDE 3 fraction from platelets of a rabbit
T2 construct: The supernatant was separated by DEAE-cellulose column chromatography (Whatman DE52 bead); from tissue; host or cells: rabbit platelets
T2 sequence (G1ST54 1-1128): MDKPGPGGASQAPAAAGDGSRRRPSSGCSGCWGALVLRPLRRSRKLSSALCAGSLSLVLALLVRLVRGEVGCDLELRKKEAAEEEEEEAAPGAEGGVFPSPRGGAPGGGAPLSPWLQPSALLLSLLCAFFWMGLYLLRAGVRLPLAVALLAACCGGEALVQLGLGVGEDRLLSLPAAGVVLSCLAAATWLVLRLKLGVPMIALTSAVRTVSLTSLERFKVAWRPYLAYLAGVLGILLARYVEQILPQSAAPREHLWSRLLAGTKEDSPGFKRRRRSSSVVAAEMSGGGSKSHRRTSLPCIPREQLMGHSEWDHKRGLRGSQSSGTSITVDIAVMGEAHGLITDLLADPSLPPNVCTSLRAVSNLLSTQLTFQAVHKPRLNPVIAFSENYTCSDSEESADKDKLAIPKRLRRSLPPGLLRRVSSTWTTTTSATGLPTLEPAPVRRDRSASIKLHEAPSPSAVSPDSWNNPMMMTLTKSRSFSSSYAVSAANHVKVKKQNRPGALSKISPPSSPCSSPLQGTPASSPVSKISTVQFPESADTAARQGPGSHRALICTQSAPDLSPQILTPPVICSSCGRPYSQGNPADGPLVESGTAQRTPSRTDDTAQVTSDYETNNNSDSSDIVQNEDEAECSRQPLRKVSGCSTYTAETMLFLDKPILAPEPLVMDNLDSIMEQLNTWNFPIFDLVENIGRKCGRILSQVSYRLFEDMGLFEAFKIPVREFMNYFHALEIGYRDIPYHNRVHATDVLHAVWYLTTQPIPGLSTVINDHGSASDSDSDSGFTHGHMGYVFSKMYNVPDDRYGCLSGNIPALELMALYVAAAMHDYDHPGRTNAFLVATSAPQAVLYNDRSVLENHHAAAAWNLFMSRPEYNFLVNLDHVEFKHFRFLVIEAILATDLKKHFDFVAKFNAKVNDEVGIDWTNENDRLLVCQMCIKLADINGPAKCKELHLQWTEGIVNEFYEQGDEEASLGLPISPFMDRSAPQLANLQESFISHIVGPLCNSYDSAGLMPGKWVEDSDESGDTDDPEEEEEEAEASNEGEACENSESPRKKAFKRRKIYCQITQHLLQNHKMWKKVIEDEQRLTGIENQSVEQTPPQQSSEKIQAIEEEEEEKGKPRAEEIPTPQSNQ
Protocol: Phosphodiesterase-3 enzyme (PDE 3) was separated from platelets of a rabbit. About 60 ml of blood was collected from a puncture of the abdominal artery of a rabbit in heparinized syringes. Platelet-rich plasma was harvested by centrifugation for 5 min at 450×g and further centrifuged for 15 min at 1,200×g to precipitate the platelets. The platelets were resuspended in homogenizing buffer (50 mM Tris-HCl, 1 mM MgCl2, pH 7.4), homogenized at 4° C. and ultrasonicated (30 sec/ml). The homogenized solution was centrifuged (105,000×g) for 1 hr at 4° C. to obtain the supernatant in which PDE was dissolved. The supernatant was separated by DEAE-cellulose column chromatography (Whatman DE52 bead) by using eluent (50 mM Tris-HCl, 3.75mM2-mercaptoethanol, pH 6.0) with concentration gradient of 0-1 M sodium acetate to elute PDE isozymes. The PDE activity was measured on the each column fraction by the following process to separate PDE 3 fraction and the inhibition for PDE 3 of the compounds of formula 1 was measured by using the fraction.
To 1.5 ml tube containing 100 ul of reaction mixture (15 mM Tris-HCl, 5 mM MgCl2, 0.5 mg/ml BSA, pH 7.4) were added appropriate amount of PDE 3 fraction and PDE inhibitor and the solution was mixed well. After [^3H]-cAMP or [^3H]-cGMP (500 nM, 2 uCi/ml) was added, the mixture was reacted in incubator of 30° C. for about 1 hour and the reaction was quenched by putting the tube into boiling water for about 45 seconds to 2 min. The tube was chilled in ice bath for about 5 min. To this tube was added snake venom (1 mg/ml, 100 ul) or 5′-nucleotidase (0.1 unit/tube) and the mixture was reacted in incubator of 37° C. for 10 min and chilled in ice bath. 3 times volume of methanol to the resin was added to the anion exchange resin (Bio-Rad resin, AG1-X2, 200-400 mesh) which had been already washed with 0.5 N HCl, H2O, 0.5 N NaOH, H2O, 0.5 N HCl and H2O in order and adjusted to pH 5. Then 1 ml of the pretreated resin was added to the each tube with vortexing. The mixture was left at 4° C. for 15 min with occasional vortexing and centrifuged (10,000 rpm) for about 5 min to sediment the resin. The supernatant (700 ul) was transferred to a liquid scintillation vial, and mixed with 10 ml of scintillation cocktail. After stabilizing the mixture by leaving it overnight, the radioactivity of the tube was measured by β-counter.

[3] = Acute oral toxicity test in rats; conditions: SD, rat, in vivo, 1 g/kg; rats, oral single dose; read-out: lethal dose (LD50) of oral administration

SMILES | PEI (penile erection index) (rats) | genital grooming (number of genital groomings) (rats) | IC50 [1] [nM] | IC50 [2] [nM] | LD50 [3] [mg/kg]
CCOc1ccc(S(=O)(=O)NCc2ccccc2)cc1-c1nc2c(CC(C)C)nn(C)c2c(=O)[nH]1 [Example 2, 5-[2-ethoxy-5-(benzylamidosulfonyl)phenyl]-1-methyl-3-isobutyl-1,6-dihydro-7H-pyrazolo(4,3-d)pyrimidin-7-one] | 533.3 ± 305.5 | 5.7 ± 2.5 | 10.8 | > 202000 | > 1000
CCCOc1ccc(S(=O)(=O)NC(C)C)cc1-c1nc2c(CCC)nn(C)c2c(=O)[nH]1 [Example 3, 5-[2-propyloxy-5-(isopropylamidosulfonyl)phenyl]-1-methyl-3-propyl-1,6-dihydro-7H-pyrazolo(4,3-d)pyrimidin-7-one] | 233.3 ± 152.8 | 2.7 ± 2.1 | 5.36 | > 223000 | > 1000
CCCCNS(=O)(=O)c1ccc(OCC)c(-c2nc3c(CCC)nn(C)c3c(=O)[nH]2)c1 [Example 9, 5-[2-ethoxy-5-(butylamidosulfonyl)phenyl]-1-methyl-3-propyl-1,6-dihydro-7H-pyrazolo(4,3-d)pyrimidin-7-one] | 200.0 ± 100.0 | 4.7 ± 1.2 | 10.7 | > 223000 | > 1000
CCCc1nn(C)c2c(=O)[nH]c(-c3cc(S(=O)(=O)Nc4ccc(C(C)C)cc4)ccc3OCC)nc12 [Example 31, 5-[2-ethoxy-5-(4-isopropylphenylamidosulfonyl)phenyl]-1-methyl-3-propyl-1,6-dihydro-7H-pyrazolo(4,3-d)pyrimidin-7-one] | 300.0 ± 0 | 3.3 ± 0.6 | 30.6 | – | > 1000
CCCc1nn(CC)c2c(=O)[nH]c(-c3cc(S(=O)(=O)Nc4ccc(F)cc4)ccc3OCC)nc12 [Example 33, 5-[2-ethoxy-5-(4-fluorophenylamidosulfonyl)phenyl]-1-ethyl-3-propyl-1,6-dihydro-7H-pyrazolo(4,3-d)pyrimidin-7-one] | 233.3 ± 57.7 | 2.7 ± 0.6 | 19.7 | 188000 | > 1000
CCCc1nn(C)c2c(=O)[nH]c(-c3cc(S(=O)(=O)Nc4ccncc4)ccc3OCC)nc12 [Example 34, 5-[2-ethoxy-5-(4-pyridylamidosulfonyl)phenyl]-1-methyl-3-propyl-1,6-dihydro-7H-pyrazolo(4,3-d)pyrimidin-7-one] | 166.7 ± 57.7 | 1.3 ± 0.6 | 3.44 | 184000 | > 1000
CCCc1nn(CC)c2c(=O)[nH]c(-c3cc(S(=O)(=O)Nc4ccncc4)ccc3OCC)nc12 [Example 36, 5-[2-ethoxy-5-(4-pyridylamidosulfonyl)phenyl]-1-ethyl-3-propyl-1,6-dihydro-7H-pyrazolo(4,3-d)pyrimidin-7-one] | 200.0 ± 173.2 | 1.3 ± 0.6 | 3.09 | – | > 1000
CCCc1nn(C)c2c(=O)[nH]c(-c3cc(S(=O)(=O)Nc4cccnc4)ccc3OCC)nc12 [Example 38, 5-[2-ethoxy-5-(3-pyridylamidosulfonyl)phenyl]-1-methyl-3-propyl-1,6-dihydro-7H-pyrazolo(4,3-d)pyrimidin-7-one] | 233.3 ± 230.9 | 2.7 ± 2.9 | 8.07 | 208000 | > 1000
CCCOc1ccc(S(=O)(=O)Nc2cccnc2)cc1-c1nc2c(CCC)nn(C)c2c(=O)[nH]1 [Example 39, 5-[2-propyloxy-5-(3-pyridylamidosulfonyl)phenyl)-1-methyl-3-propyl-1,6-dihydro-7H-pyrazolo(4,3-d)pyrimidin-7-one] | 166.7 ± 57.7 | 1.3 ± 1.5 | 1.16 | 41700 | > 1000
CCCc1nn(CC)c2c(=O)[nH]c(-c3cc(S(=O)(=O)Nc4cccnc4)ccc3OCC)nc12 [Example 40, 5-[2-ethoxy-5-(3-pyridylamidosulfonyl)phenyl]-1-ethyl-3-propyl-1,6-dihydro-7H-pyrazolo(4,3-d)pyrimidin-7-one] | 177.8 ± 203.7 | 1.7 ± 1.5 | 8.7 | – | > 1000
CCOc1ccc(S(=O)(=O)Nc2cccnc2)cc1-c1nc2c(CC(C)C)nn(C)c2c(=O)[nH]1 [Example 41, 5-[2-ethoxy-5-(3-pyridylamidosulfonyl)phenyl]-1-methyl-3-isobutyl-1,6-dihydro-7H-pyrazolo(4,3-d)pyrimidin-7-one] | 177.8 ± 203.7 | 1.7 ± 1.5 | 2.28 | 9930 | > 1000
CCCc1nn(CC)c2c(=O)[nH]c(-c3cc(S(=O)(=O)NCC4CCCN4C)ccc3OCC)nc12 (stereo not drawn) [Example 57] | 131.3 ± 128.1 | 1.8 ± 1.3 | 33.3 | 47700 | –
CCCc1nn(C)c2c(=O)[nH]c(-c3cc(S(=O)(=O)NCC4CCN(C)C4)ccc3OCC)nc12 (stereo not drawn) [Example 59] | 150.0 ± 57.7 | 1.5 ± 0.6 | 140 | 122000 | –
CCCc1nn(C)c2c(=O)[nH]c(-c3cc(S(=O)(=O)NCC4CCN(CC)C4)ccc3OCC)nc12 (stereo not drawn) [Example 63] | 12.5 ± 25.0 | 1.5 ± 0.6 | 98.2 | 52300 | –
CCCc1nn(CC)c2c(=O)[nH]c(-c3cc(S(=O)(=O)NCC4CCN(CC)C4)ccc3OCC)nc12 (stereo not drawn) [Example 65] | 93.8 ± 94.4 | 1.8 ± 1.0 | 74.5 | 32100 | –
CCCc1nn(CC)c2c(=O)[nH]c(-c3cc(S(=O)(=O)NCCC4CCCN4C)ccc3OCC)nc12 (stereo not drawn) [Example 69] | 225.0 ± 95.7 | 2.3 ± 1.0 | 31.9 | 76500 | –
